Results: paper PMC3365614 (Cancer Chemotherapy and Pharmacology, 2012)

Columns and labels:
[1] = 1-hr infusions of flavopiridol as a single agent; cited from earlier work
[2] = format: in vivo, human
human serum proteins = settings: cited from earlier work
ABCG2 = settings: cited from earlier work
[3] = for Plasma concentration, effect of flavopiridol: immediately prior to (24 h) vs end of 1-hr flavopiridol infusion (25 h) on day 2

| SMILES | flavopiridol clearance, previously reported [1] [L/hr/m^2] | mean flavopiridol clearance (per body surface area) ([2]; 1-hr infusions of 30, 45 or 60 mg/m^2 with 400 or 600 mg/day imatinib, cycle 1) [L/hr/m^2] | clearance ([2]; human, plasma, intravenous) [mL/min] | half-life ([2]; human, plasma, intravenous) [h] | binding to human serum proteins (human serum proteins) | ABCG2 substrate status (ABCG2) | Plasma concentration, effect of flavopiridol [3] | AUC of the metabolite CGP74588, effect of flavopiridol ([3]; presence vs absence of flavopiridol, P=0.84) | AUC of imatinib, lower in the presence of flavopiridol ([3]; on average, presence vs absence of flavopiridol, p=0.022) [%] | ABCG2 inhibition (ABCG2) |
| --- | --- | --- | --- | --- | --- | --- | --- | --- | --- | --- |
| CN1CC[C@H](c2c(O)cc(O)c3c(=O)cc(-c4ccccc4Cl)oc23)[C@H](O)C1 [flavopiridol] | 13.8 | 13.2 | 427 | 2.33 ± 0.97 | bind tightly | substrate | – | – | – | – |
| Cc1ccc(NC(=O)c2ccc(CN3CCNCC3)cc2)cc1Nc1nccc(-c2cccnc2)n1 [CGP74588] | – | – | – | – | – | – | increase | not significantly affected | – | – |
| Cc1ccc(NC(=O)c2ccc(CN3CCN(C)CC3)cc2)cc1Nc1nccc(-c2cccnc2)n1 [imatinib] | – | – | – | – | – | – | did not affect | – | 21 | inhibitor |
